# Data as given in US20130131174A1, “INJECTABLE PHARMACEUTICAL FORMULATION OF MELPHALAN” (ERIOCHEM, priority 2010, published 2013).
# Where “and” joins values, the source holds several entries; their conditions need not be identical. Equal entries are not always repeated.
# How the values were obtained:
# [1] = Stability at 25° C. of melphalan solution at 10 mg/ml in glacial acetic acid, purity by HPLC; format: physicochemical
# Method: To study stability at 25° C. of a melphalan solution at 10 mg/ml in glacial acetic acid in the absence of hydrochloric acid, 830 mg base melphalan Lot 20-01-2010 were used and the results of the following table were obtained. This solution is not comprised in the present invention, it is only introduced with the aim of comparing this option without hydrochloric acid presenting higher concentration of impurities than the composition of lyophilized melphalan on the invention.
# [2] = Solubility of melphalan in pharmaceutical organic solvents; format: physicochemical; details: for Solubility in DMSO: hydrochlorate prepared by addition of three moles of hydrochloric acid at 37%
# Method: To investigate the possibility of elaborating malphalan lyophilizates from pharmaceutical organic solvents, it was determined that base melphalan as well as its hydrochlorate are not soluble in terbutylic alcohol. Instead, even though base malphalan is not soluble in DMSO, its hydrochlorate is soluble up to close to 10% p/v, prepared by the addition of three moles of hydrochloric acid as a concentrated acid at 37%.
# Base melphalan is soluble in glacial acetic acid, preferably free of acetic anhydride, in up to close to 10% p/v; likewise as melphalan hydrochlorate, mixtures of acetic acid and aqueous solution of hydrochloric acid at 37% p/p to dissolve base melphalan may also be used, or else hydrogen chloride solution in glacial acetic acid.
# [3] = Purity by HPLC of melphalan lyophilizates vs. their API (degradation on lyophilization)
# Method: Purity determinations of melphalan in its different compositions were analyzed by HPLC applying the method Pharmaeuropa, Vol 21, No. 3, July 2009, pages 425-28, for the following examples:
# (§1) Simultaneously, the melphalan solution was filtered and measured in doses to 10 mg/ml in glacial acetic acid with 3 moles of hydrochloric acid from hydrochloric acid at 37% w/we, which used base melphalan Lot 20-01-2010, in 5 ml vials of the tube flask type, 20 mm mouth, containing 2 ml solution, and it was lyophilized in a Virtis Advantage Lyophilizer, freezing at −50° C. for 5 hours, starting vacuum at the same temperature, then bringing the shelf to −20° C., then to 0° C. and finally drying at 5° C., with a final vacuum of 25 microbars.
# as §1, with “acid,” for “acid with 3 moles of hydrochloric acid from hydrochloric acid at 37% w/we,”, “25°” for “5°”
# [4] = pH of lyophilized melphalan after reconstitution, dilution in normal saline solution and neutralization with trisodium citrate; format: physicochemical; details: 5 mg/ml of melphalan hydrochlorate with 2.5 molecules of hydrogen chloride per melphalan mol
# Method: (§2) A vial containing the solid composition of lyophilized melphalan was reconstituted with 3.2 ml of normal saline solution, producing a melphalan solution at 5.40 mg/ml of pH 1.80. An aliquot of 0.8 ml was taken and added with another of 4.2 ml of normal saline solution, producing 0.86 mg/ml of pH 2.33. It was neutralized with 0.20 ml of a solution of 100 mg/ml of trisodium citrate dihydrate, producing a final pH 5.44.
# as §2, with “6.84” for “5.40”, “2.20.” for “1.80.”, “1.09” for “0.86”, “2.20.” for “2.33.”, “of 5.59.” for “5.44.”
# [5] = cited from earlier work
# [6] = API before dissolution, listed as API
# [7] = API or lyophilizate, listed as API
# [8] = API or lyophilizate, listed as API-Mel 143-09
structure (smiles),measurement,setting,value
"N[C@@H](Cc1ccc(N(CCCl)CCCl)cc1)C(=O)O [Melphalan, p-(bis-2-chloroethyl)-amino-L-phenylalanine]",Impurity C,[1]; API before dissolution,0.02 % of area
same,Impurity D,[1]; API before dissolution,0.09 % of area
same,Impurity F,[1]; API before dissolution,0.05 % of area
same,Impurity G,[1]; API before dissolution,2.05 % of area
same,Impurity I,[1]; API before dissolution,0.03 % of area
same,Impurity J,[1]; API before dissolution,0.11 % of area
same,Melphalan Purity,[1]; API before dissolution,97.45 % of area
same,Total of Impurities,[1]; API before dissolution,2.55 % of area
same,Max. Imp. Disposab,[1]; [6],0.02 (TRR 0.81) % of area and 0.04 % of area
same,Other Imp. Disposab,[1]; [6],0.04 (TRR 1.58) % of area and 0.02 % of area
same,Stability in solution of 10 mg/ml in acetic acid by HPLC,[1]; hours in solution at ambient temperature / 25° C.,perfectly stable
same,Solubility in terbutylic alcohol,[2],not soluble
same,Solubility in DMSO,[2]; listed as base malphalan,not soluble
same,Solubility in glacial acetic acid,[2]; preferably free of acetic anhydride,~10 % p/v
same,Impurity C,[3]; API or lyophilizate,<0.05 % w/w
same,Impurity F,[3]; API or lyophilizate,<0.05 % w/w
same,Impurity I,[3]; API or lyophilizate,<0.05 % w/w
same,Impurity D,[3]; [7],0.05% w/w and <0.05 % w/w
same,Impurity G,[3]; [7],1.04% w/w and 0.97% w/w
same,Impurity J,[3]; [7],0.05% w/w and <0.05 % w/w
same,Máx. Imp. Dispos,[3]; [7],0.05% w/w and 0.07% w/w
same,Total of Impurities,[3]; [7],1.19% w/w and 1.04% w/w
same,Impurity D,[3]; [8],0.1 % w/w
same,Impurity G,[3]; [8],0.9 % w/w
same,Máx. Imp. Dispos,[3]; [8],0.1 % w/w
same,Total of Impurities,[3]; [8],1.2 % w/w
same,Degradation of the API on non-aqueous lyophilization,[3]; from acetic acid with three moles of hydrochloric acid per mol,lower than 0.2 % in area
N[C@@H](Cc1ccc(N(CCCl)CCCl)cc1)C(=O)O [melphalan hydrochlorate],Solubility in DMSO,[2]; listed as its hydrochlorate,~10 % p/v
same,pH of an aqueous solution,[4],approximately 1.9
CC(O)CO (stereo not shown) [propylene glycol],Half plasma life,[5]; individuals with normal renal function,5 h
same,Excreted by kidneys,[5]; rest metabolized by the liver,12-45%
